Data on eleven molecules can be found in PubChem BioAssay (NCI).

Some test systems named below: DU-145 prostate; OVCAR-3 ovarian; SNB-75 CNS; SF-295 CNS; K-562 leukemia; RXF 393 renal; SF-539 CNS; SW-620 colon; HCT-15 colon; NCI-H460 lung.
Holding throughout (assay): NCI anticancer screen, dose series, 48 h

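Briefly, cells in 96-well plates were exposed to five compound concentrations for 48 h, and endpoints were estimated by linear interpolation. GI50 is the concentration that inhibits growth by half. Definition used: TGI = concentration required for complete inhibition of growth.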

`CC12CCC3c4cc(Br)c(O)c(Br)c4CCC3C1CCC2O` (stereo not drawn): the TGI is greater than 100 µM in the assay with DU-145 prostate; 56.4 µM in the assay on OVCAR-3 ovarian; 37.5 µM in the assay on SNB-75 CNS; 33.4 µM with SF-295 CNS; 64.6 µM in the assay on K-562 leukemia; 40.5 µM with RXF 393 renal. For the same molecule, the TGI in the assay on SF-539 CNS came to 36.3 µM; in the assay on SW-620 colon, 33 µM.

Take `Cc1cn(-c2ccc(S(C)(=O)=O)cc2)c(-c2ccc(Cl)cc2)n1`: the GI50 in the assay with DU-145 prostate, in the assay with OVCAR-3 ovarian, with SNB-75 CNS, in the assay on HCT-15 colon, with NCI-H460 lung and with SF-295 CNS was greater than 100 µM throughout. Further, the GI50 with K-562 leukemia, in the assay with SF-539 CNS and in the assay on SW-620 colon was greater than 100 µM each time. The TGI in the assay on DU-145 prostate, in the assay on OVCAR-3 ovarian, with SNB-75 CNS, in the assay with HCT-15 colon, in the assay with NCI-H460 lung and in the assay with SF-295 CNS was greater than 100 µM in each case. For the same molecule, the TGI in the assay on K-562 leukemia, in the assay on SF-539 CNS and with SW-620 colon was greater than 100 µM each time.

In the case of `C/C=C/COC(=O)CO[N+](=O)[O-]`, the TGI in the assay with OVCAR-3 ovarian, with SNB-75 CNS, in the assay with HCT-15 colon, in the assay with NCI-H460 lung, in the assay with SF-295 CNS and in the assay on K-562 leukemia was greater than 100 µM in each case. For the same molecule, the TGI with RXF 393 renal, in the assay with SF-539 CNS and with SW-620 colon was greater than 100 µM each time.

Consider `S=C=NCCc1ccccc1`, for which the TGI in the assay with OVCAR-3 ovarian is 2.09 µM; with SNB-75 CNS, 11.8 µM; with HCT-15 colon, 1.12 µM; with NCI-H460 lung it was 0.765 µM; in the assay with SF-295 CNS, 3.47 µM; in the assay with K-562 leukemia, greater than 64.1 µM. In addition, the TGI was found to be 1.42 µM in the assay with RXF 393 renal, 0.532 µM with SF-539 CNS and 1.08 µM in the assay with SW-620 colon.

In the case of `NNC(=O)c1ccc(OCc2nc3ccccc3[nH]2)cc1`, the TGI in the assay on DU-145 prostate, in the assay on OVCAR-3 ovarian, in the assay with HCT-15 colon, with NCI-H460 lung, in the assay with SF-295 CNS and in the assay on K-562 leukemia was greater than 100 µM throughout. Also, the TGI in the assay on RXF 393 renal, with SF-539 CNS and in the assay on SW-620 colon was greater than 100 µM in each case.

`COc1ccc(N(/C=C/C(=O)C(F)(F)F)CC(=O)c2ccc(Cl)cc2)cc1`: the GI50 in the assay on DU-145 prostate is 19.8 µM; in the assay with OVCAR-3 ovarian it was 12.8 µM; in the assay with HCT-15 colon, 13 µM; in the assay with NCI-H460 lung, 13.4 µM; in the assay on SF-295 CNS, 13.6 µM; in the assay with K-562 leukemia, 13.6 µM. Moreover, the GI50 is 16.3 µM with RXF 393 renal, 18.2 µM in the assay on SF-539 CNS and 19.2 µM in the assay with SW-620 colon. In addition, the TGI is 40.4 µM with DU-145 prostate; 36.2 µM with OVCAR-3 ovarian; 26.8 µM with HCT-15 colon; 32.8 µM in the assay on NCI-H460 lung; 31.7 µM with SF-295 CNS; 43.1 µM with K-562 leukemia. Moreover, the TGI in the assay on RXF 393 renal turned out to be 48.5 µM; in the assay with SF-539 CNS, 37 µM; in the assay on SW-620 colon, 41 µM.

In the case of `O=c1[nH]c(=O)n(C2OC(CO)C(O)C2O)cc1OCC(F)(F)F` (stereo not drawn), the TGI in the assay with OVCAR-3 ovarian, in the assay on SNB-75 CNS, in the assay with HCT-15 colon, in the assay with NCI-H460 lung, in the assay on SF-295 CNS and with K-562 leukemia was greater than 100 µM in each case. Moreover, the TGI in the assay with RXF 393 renal, in the assay with SF-539 CNS and in the assay with SW-620 colon was greater than 100 µM in each case.

With `COc1cccc(/C(C)=N/NC(=O)CSc2nc3ccccc3c(=O)n2CCc2ccc(S(N)(=O)=O)cc2)c1`, the GI50 was 3.35 µM in the assay with DU-145 prostate; 2.32 µM with OVCAR-3 ovarian; 5.86 µM in the assay with SNB-75 CNS; 18.4 µM with HCT-15 colon; 4.02 µM in the assay on SF-295 CNS; 11.2 µM in the assay on K-562 leukemia. The GI50 in the assay on RXF 393 renal is 2.71 µM; in the assay with SF-539 CNS, 1.88 µM; in the assay on SW-620 colon it was 2.77 µM. Besides, the TGI is 10.6 µM in the assay with DU-145 prostate; 4.8 µM in the assay on OVCAR-3 ovarian; 26.9 µM in the assay on SNB-75 CNS; greater than 100 µM with HCT-15 colon; 16.3 µM with SF-295 CNS; greater than 100 µM in the assay on K-562 leukemia. Further, the figures for the TGI with RXF 393 renal, in the assay on SF-539 CNS and in the assay with SW-620 colon were 7.7 µM, 3.98 µM and 7.5 µM, respectively.

For `c1ccc(P(=C2c3ccccc3-c3ccccc32)(c2ccccc2)c2ccccc2)cc1`, the TGI turned out to be 6.13 µM in the assay on OVCAR-3 ovarian; 83.8 µM in the assay on SNB-75 CNS; 52.2 µM in the assay with HCT-15 colon; 19.2 µM with NCI-H460 lung; 16.1 µM in the assay with SF-295 CNS; 6 µM in the assay on K-562 leukemia. The TGI in the assay with RXF 393 renal amounted to 93.8 µM; with SF-539 CNS, 36.7 µM; in the assay on SW-620 colon, 10.4 µM.

For the molecule `Nc1nc(=O)n([C@@H]2CS[C@H](CO)O2)cc1F`, the GI50 in the assay with DU-145 prostate, with OVCAR-3 ovarian, with HCT-15 colon, with NCI-H460 lung, with SF-295 CNS and in the assay on K-562 leukemia was greater than 100 µM throughout. Also, the GI50 in the assay with RXF 393 renal, in the assay on SF-539 CNS and in the assay on SW-620 colon was greater than 100 µM each time. The TGI with DU-145 prostate, with OVCAR-3 ovarian, with HCT-15 colon, in the assay with NCI-H460 lung, in the assay with SF-295 CNS and in the assay with K-562 leukemia was greater than 100 µM in each case. Also, the TGI in the assay with RXF 393 renal, in the assay on SF-539 CNS and in the assay with SW-620 colon was greater than 100 µM throughout.

Consider `COc1ccc(Nc2nc3cc(N)cc(N)c3nc2-c2ccccc2)cc1OC`, for which the GI50 in the assay on DU-145 prostate is 45 µM; in the assay on OVCAR-3 ovarian, 29.9 µM; in the assay with HCT-15 colon, 29 µM; in the assay with NCI-H460 lung, 20.5 µM; in the assay on SF-295 CNS, 16.9 µM; in the assay on K-562 leukemia, 20.2 µM. For the same molecule, the GI50 in the assay on RXF 393 renal was 8.15 µM; in the assay with SF-539 CNS it was 16.2 µM; in the assay with SW-620 colon, 15.5 µM. For the same molecule, the TGI was greater than 100 µM in the assay with DU-145 prostate; greater than 100 µM with OVCAR-3 ovarian; greater than 100 µM with HCT-15 colon; greater than 100 µM in the assay with NCI-H460 lung; 45.3 µM in the assay with SF-295 CNS; 71.2 µM with K-562 leukemia. Also, the TGI was determined as 49.4 µM with RXF 393 renal, 37.5 µM with SF-539 CNS and 35.9 µM with SW-620 colon.
